In ChEMBL document CHEMBL3596195, “Novel cajaninstilbene acid derivatives as antibacterial agents” (Eur J Med Chem, 2015):
≈ marks a conversion by molar mass, not a printed value.

Tests used:
Assay type in all cases: functional
[1] = test system: Proteus vulgaris; experiment: Antibacterial activity against Proteus vulgaris ATCC49101 assessed as bacterial growth inhibition after 24 hrs by broth dilution method; conditions: ATCC49101, 24 h
[2] = test system: Staphylococcus aureus; experiment: Antibacterial activity against Staphylococcus aureus ATCC25923 assessed as bacterial growth inhibition after 24 hrs by broth dilution method; conditions: ATCC25923, 24 h
[3] = test system: Staphylococcus aureus; experiment: Antibacterial activity against methicillin-resistant Staphylococcus aureus ATCC425055 assessed as bacterial growth inhibition after 24 hrs by broth dilution method; conditions: ATCC425055, 24 h
[4] = test system: Staphylococcus epidermidis; experiment: Antibacterial activity against Staphylococcus epidermidis ATCC12228 assessed as bacterial growth inhibition after 24 hrs by broth dilution method; conditions: ATCC12228, 24 h
[5] = test system: Staphylococcus aureus; experiment: Antibacterial activity against methicillin-resistant Staphylococcus aureus ATCC515992 assessed as bacterial growth inhibition after 24 hrs by broth dilution method; conditions: ATCC515992, 24 h
[6] = test system: Staphylococcus aureus; experiment: Antibacterial activity against methicillin-resistant Staphylococcus aureus ATCC52056 assessed as bacterial growth inhibition after 24 hrs by broth dilution method; conditions: ATCC52056, 24 h
[7] = test system: Staphylococcus aureus; experiment: Antibacterial activity against methicillin-resistant Staphylococcus aureus ATCC513045 assessed as bacterial growth inhibition after 24 hrs by broth dilution method; conditions: ATCC513045, 24 h
[8] = test system: Staphylococcus aureus; experiment: Antibacterial activity against methicillin-resistant Staphylococcus aureus ATCC523512 assessed as bacterial growth inhibition after 24 hrs by broth dilution method; conditions: ATCC523512, 24 h
[9] = test system: Escherichia coli; experiment: Antibacterial activity against Escherichia coli ATCC25922 assessed as bacterial growth inhibition after 24 hrs by broth dilution method; conditions: ATCC25922, 24 h
[10] = test system: Staphylococcus aureus; experiment: Antibacterial activity against methicillin-resistant Staphylococcus aureus ATCC510019 assessed as bacterial growth inhibition after 24 hrs by broth dilution method; conditions: ATCC510019, 24 h
[11] = test system: Staphylococcus aureus; experiment: Antibacterial activity against methicillin-resistant Staphylococcus aureus ATCC43300 assessed as bacterial growth inhibition after 24 hrs by broth dilution method; conditions: ATCC43300, 24 h
[12] = test system: Bacillus subtilis; experiment: Antibacterial activity against Bacillus subtilis ATCC6633 assessed as bacterial growth inhibition after 24 hrs by broth dilution method; conditions: ATCC6633, 24 h
[13] = test system: Pseudomonas aeruginosa; experiment: Antibacterial activity against Pseudomonas aeruginosa ATCC2785 assessed as bacterial growth inhibition after 24 hrs by broth dilution method; conditions: ATCC2785, 24 h
[14] = test system: Staphylococcus aureus; experiment: Antibacterial activity against methicillin-resistant Staphylococcus aureus ATCC62202 assessed as bacterial growth inhibition after 24 hrs by broth dilution method; conditions: ATCC62202, 24 h
[15] = test system: Staphylococcus aureus; experiment: Antibacterial activity against methicillin-resistant Staphylococcus aureus ATCC51033 assessed as bacterial growth inhibition after 24 hrs by broth dilution method; conditions: ATCC51033, 24 h

Row | SMILES | MIC [1] [µg/mL] | MIC [2] [µg/mL] | MIC [3] [µg/mL] | MIC [4] [µg/mL] | MIC [5] [µg/mL] | MIC [6] [µg/mL] | MIC [7] [µg/mL] | MIC [8] [µg/mL] | MIC [9] [µg/mL] | MIC [10] [µg/mL] | MIC [11] [µg/mL] | MIC [12] [µg/mL] | MIC [13] [µg/mL] | MIC [14] [µg/mL] | MIC [15] [µg/mL]
1 | COC(=O)c1c(/C=C/c2ccccc2)cc(OC)c(CC=C(C)C)c1O | > 128 | > 128 | 128 (≈ 363 µM) | > 128 | > 128 | > 128 | 128 (≈ 363 µM) | > 128 | > 128 | > 128 | 128 (≈ 363 µM) | > 128 | > 128 | 128 (≈ 363 µM) | > 128
2 | COC(=O)c1c(/C=C/c2ccccc2F)cc(OC)c(CC=C(C)C)c1O | > 128 | > 128 | 128 (≈ 346 µM) | > 128 | > 128 | > 128 | 128 (≈ 346 µM) | > 128 | > 128 | > 128 | 128 (≈ 346 µM) | > 128 | > 128 | 128 (≈ 346 µM) | > 128
3 | COC(=O)c1c(/C=C/c2cccc(F)c2)cc(OC)c(CC=C(C)C)c1O | > 128 | 64 (≈ 173 µM) | > 128 | > 128 | > 128 | > 128 | 128 (≈ 346 µM) | 64 (≈ 173 µM) | > 128 | 128 (≈ 346 µM) | > 128 | 128 (≈ 346 µM) | > 128 | 128 (≈ 346 µM) | 128 (≈ 346 µM)
4 | COC(=O)c1c(/C=C/c2ccc(Cl)cc2)cc(OC)c(CC=C(C)C)c1O | > 128 | > 128 | > 128 | 128 (≈ 331 µM) | > 128 | > 128 | > 128 | > 128 | > 128 | > 128 | > 128 | > 128 | > 128 | 128 (≈ 331 µM) | > 128
5 | COC(=O)c1c(/C=C/c2ccc(OC)cc2)cc(OC)c(CC=C(C)C)c1O | > 128 | 128 (≈ 335 µM) | 128 (≈ 335 µM) | > 128 | > 128 | 128 (≈ 335 µM) | 128 (≈ 335 µM) | 128 (≈ 335 µM) | > 128 | 128 (≈ 335 µM) | 128 (≈ 335 µM) | > 128 | > 128 | > 128 | > 128
6 | COC(=O)c1c(/C=C/c2cc(OC)c(OC)c(OC)c2)cc(OC)c(CC=C(C)C)c1O | > 128 | > 128 | > 128 | 64 (≈ 145 µM) | 64 (≈ 145 µM) | > 128 | > 128 | > 128 | > 128 | > 128 | > 128 | > 128 | > 128 | > 128 | 128 (≈ 289 µM)
7 | COC(=O)c1c(/C=C/c2cccc(C#N)c2)cc(OC)c(CC=C(C)C)c1O | > 128 | > 128 | > 128 | 128 (≈ 339 µM) | > 128 | > 128 | > 128 | > 128 | > 128 | > 128 | > 128 | > 128 | > 128 | 128 (≈ 339 µM) | > 128
8 | COC(=O)c1c(/C=C/c2ccc(C(F)(F)F)cc2)cc(OC)c(CC=C(C)C)c1O | > 128 | 64 (≈ 152 µM) | 64 (≈ 152 µM) | 64 (≈ 152 µM) | > 128 | 128 (≈ 304 µM) | 128 (≈ 304 µM) | 64 (≈ 152 µM) | > 128 | > 128 | > 128 | 128 (≈ 304 µM) | > 128 | 128 (≈ 304 µM) | > 128
9 | COC(=O)c1c(/C=C/c2ccc(F)cc2F)cc(OC)c(CC=C(C)C)c1O | > 128 | > 128 | 128 (≈ 330 µM) | 64 (≈ 165 µM) | > 128 | 128 (≈ 330 µM) | > 128 | 64 (≈ 165 µM) | > 128 | > 128 | > 128 | 128 (≈ 330 µM) | > 128 | 64 (≈ 165 µM) | 128 (≈ 330 µM)
10 | COc1cc(C)c(C(=O)O)c(O)c1CC=C(C)C | > 128 | 32 (≈ 128 µM) | 32 (≈ 128 µM) | 64 (≈ 256 µM) | 32 (≈ 128 µM) | 64 (≈ 256 µM) | 32 (≈ 128 µM) | 32 (≈ 128 µM) | > 128 | 64 (≈ 256 µM) | 32 (≈ 128 µM) | 64 (≈ 256 µM) | > 128 | 32 (≈ 128 µM) | 32 (≈ 128 µM)
11 | COc1cc(/C=C/c2ccc(F)cc2)c(C(=O)O)c(O)c1CC=C(C)C | > 64 | 8 (≈ 22.4 µM) | 2 (≈ 5.61 µM) | 4 (≈ 11.2 µM) | 8 (≈ 22.4 µM) | 1 (≈ 2.81 µM) | 8 (≈ 22.4 µM) | 4 (≈ 11.2 µM) | > 128 | 1 (≈ 2.81 µM) | 4 (≈ 11.2 µM) | 1 (≈ 2.81 µM) | > 64 | 1 (≈ 2.81 µM) | 1 (≈ 2.81 µM)
12 | COc1cc(/C=C/c2ccc(Cl)cc2)c(C(=O)O)c(O)c1CC=C(C)C | > 64 | 8 (≈ 21.5 µM) | 4 (≈ 10.7 µM) | 4 (≈ 10.7 µM) | 4 (≈ 10.7 µM) | 2 (≈ 5.36 µM) | 4 (≈ 10.7 µM) | 4 (≈ 10.7 µM) | 128 (≈ 343 µM) | 1 (≈ 2.68 µM) | 2 (≈ 5.36 µM) | 2 (≈ 5.36 µM) | > 64 | 2 (≈ 5.36 µM) | 0.5 (≈ 1.34 µM)
13 | COc1ccc(/C=C/c2cc(OC)c(CC=C(C)C)c(O)c2C(=O)O)cc1 | > 64 | 32 (≈ 86.9 µM) | 8 (≈ 21.7 µM) | 32 (≈ 86.9 µM) | 16 (≈ 43.4 µM) | 16 (≈ 43.4 µM) | 16 (≈ 43.4 µM) | 16 (≈ 43.4 µM) | > 128 | 16 (≈ 43.4 µM) | 16 (≈ 43.4 µM) | 16 (≈ 43.4 µM) | > 64 | 16 (≈ 43.4 µM) | 32 (≈ 86.9 µM)
14 | COc1cc(/C=C/c2ccc(C)cc2)c(C(=O)O)c(O)c1CC=C(C)C | > 64 | 16 (≈ 45.4 µM) | 16 (≈ 45.4 µM) | 32 (≈ 90.8 µM) | 32 (≈ 90.8 µM) | 16 (≈ 45.4 µM) | 8 (≈ 22.7 µM) | 32 (≈ 90.8 µM) | > 128 | 32 (≈ 90.8 µM) | 32 (≈ 90.8 µM) | 16 (≈ 45.4 µM) | > 64 | 32 (≈ 90.8 µM) | 16 (≈ 45.4 µM)
15 | COc1cc(/C=C/c2cc(OC)c(OC)c(OC)c2)c(C(=O)O)c(O)c1CC=C(C)C | > 64 | 64 (≈ 149 µM) | 16 (≈ 37.3 µM) | 32 (≈ 74.7 µM) | 16 (≈ 37.3 µM) | 32 (≈ 74.7 µM) | 16 (≈ 37.3 µM) | 16 (≈ 37.3 µM) | > 128 | 16 (≈ 37.3 µM) | 16 (≈ 37.3 µM) | 16 (≈ 37.3 µM) | > 64 | 32 (≈ 74.7 µM) | 64 (≈ 149 µM)
16 | COc1cc(/C=C/c2cccc(C#N)c2)c(C(=O)O)c(O)c1CC=C(C)C | > 64 | 4 (≈ 11 µM) | 1 (≈ 2.75 µM) | 2 (≈ 5.5 µM) | 2 (≈ 5.5 µM) | 4 (≈ 11 µM) | 4 (≈ 11 µM) | 2 (≈ 5.5 µM) | > 128 | 2 (≈ 5.5 µM) | 8 (≈ 22 µM) | 16 (≈ 44 µM) | > 64 | 0.5 (≈ 1.38 µM) | 2 (≈ 5.5 µM)
